These are literature values, as cited in patent publication US12127976B2, “Eye-mountable therapeutic devices, and associated systems and methods” (Twenty Twenty Therapeutics LLC, priority 2018, dated 2024).

Counter-ions that a name gives are not always drawn.

The conditions of data set [1]: after topical administration; formulated as salts.
For data set [2] the following is noted: in aqueous humor.

Regarding `CC(C)NCC(O)COc1ccc(CCOCC2CC2)cc1` (stereo not drawn) [betaxolol], the “time at which the maximum effect can be detected” value in data set [1] is “about 2 hours”. Take `O=C(O)CCC/C=C\C[C@@H]1[C@@H](CC[C@@H](O)CCc2ccccc2)[C@H](O)C[C@@H]1O` [latanoprost acid]: in data set [2], the estimated half-life is roughly 2.8 h. In the case of `CC(C)(C)NC[C@H](O)COc1nsnc1N1CCOCC1` [timolol maleate], the “time at which the maximum effect can be detected” value in data set [1] is recorded as “about 2 hours”.
